This note sets out measurements from patent publication US4393225A, “AI-77 Compounds and pharmaceutically acceptable salts thereof” (Asahi Kasei Kogyo Kabushiki Kaisha, priority 1979, dated 1983).

One experiment deals with ulcer. In words: Anti-ulcer test (restraint and water immersion ulcer in rats, i.p.). In kind it is in vivo, Male Wistar rats. The conditions noted are these: Rattus norvegicus, ip, read-out: % Inhibition of Ulcer. In a few lines:
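Male Wistar rats (~150 g), fasted 24 h, dosed i.p. with compound in physiological saline; 1 h later restrained and immersed to xiphisternum in 21 °C water for 6 h. Stomachs examined microscopically, ulcers scored 0–3, and percent inhibition calculated.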
On to `CCCCCOC(C)CCNC(=O)CC(N)C(O)C(O)C(=O)NC(CC(C)C)C1Cc2cccc(O)c2C(=O)O1` (centres unmarked) [VII-1-27], for which the inhibition in vivo at 25 mg/kg worked out at 89%.

As for `CCC(=O)OC(C(=O)NC(CC(C)C)C1Cc2cccc(O)c2C(=O)O1)C(O)C(CC(=O)NC)NC(C)=O` (centres unmarked) [VII-29-1], the inhibition in vivo at 25 mg/kg turned out to be 66%.

With `CSC(C)(C)CC(=O)NC1CC(=O)OC1C(O)C(=O)NC(CC(C)C)C1Cc2cccc(O)c2C(=O)O1` (centres unmarked) [IIIa-1-82], the inhibition in vivo at 50 mg/kg came out at 66%.

Staying with this experiment, now noted: Rattus norvegicus, ip; 25 mg/kg i.p.; read-out: % Inhibition of Ulcer.
On to `CCCCCCCCCCCCCCCCCC(=O)NC(CC(=O)NCC)C(O)C(O)C(=O)NC(CC(C)C)C1Cc2cccc(O)c2C(=O)O1` (centres unmarked) [VII-28-4], for which the inhibition in vivo at 25 mg/kg turned out to be 66%.

Turning to `CCCCOC(C(=O)NC(CC(C)C)C1Cc2cccc(O)c2C(=O)O1)C(O)C(CC(N)=O)NCC` (centres unmarked) [VII-17-1], the inhibition in vivo at 25 mg/kg is 78%.

Regarding `CCNC(=O)CC(NCC)C(O)C(OC(=O)CC)C(=O)NC(CC(C)C)C1Cc2cccc(OC)c2C(=O)O1` (centres unmarked) [VII-15-4], the inhibition in vivo at 25 mg/kg is 44%.

For the compound `CCC(=O)OC(C(=O)NC(CC(C)C)C1Cc2cccc(OC)c2C(=O)O1)C(O)C(CC(N)=O)NC(C)=O` (centres unmarked) [VII-33-1], the inhibition in vivo at 25 mg/kg stood at 66%.

Consider `CCC(C)CCCCCNC(=O)CC(N)C(O)C(O)C(=O)NC(CC(C)C)C1Cc2cccc(O)c2C(=O)O1` (centres unmarked) [VII-1-31], for which the inhibition in vivo at 25 mg/kg turned out to be 83%.

On to `CC(C)CC(NC(=O)C(O)C(O)C(N)CC(N)=O)C1Cc2cccc(OC(=O)C(C)C)c2C(=O)O1` (centres unmarked) [VII-4-2], for which the inhibition in vivo at 25 mg/kg amounted to 89%.

Still in this experiment, the particulars now being: Rattus norvegicus, ip; 50 mg/kg i.p.; read-out: % Inhibition of Ulcer.
For `CCCCCCC(=O)OC(C(=O)NC(CC(C)C)C1Cc2cccc(O)c2C(=O)O1)C1C=CC(=O)O1` (centres unmarked) [IVa-1-8], the inhibition in vivo at 50 mg/kg was determined as 33%.

In the case of `CCOc1cccc2c1C(=O)OC(C(CC(C)C)NC(=O)C(O)C1OC(=O)CC1NC(=O)Cn1cnnn1)C2` (centres unmarked) [IIIa-5-72], the inhibition in vivo at 50 mg/kg was found to be 44%.

For the compound `CNC1CC(=O)OC1C(O)C(=O)NC(CC(C)C)C1Cc2cccc(OCCC(C)C)c2C(=O)O1` (centres unmarked) [IIIa-31-4], the inhibition in vivo at 50 mg/kg stood at 89%.

Take `CCOc1cccc2c1C(=O)OC(C(CC(C)C)NC(=O)C(O)C1OC(=O)CC1NCC(Cl)(Cl)Cl)C2` (centres unmarked) [IIIa-22-13]: the inhibition in vivo at 50 mg/kg was found to be 78%.

With `CCC(=O)COc1cccc2c1C(=O)OC(C(CC(C)C)NC(=O)C(O)C1OC(=O)CC1NC(=O)C(Cl)(Cl)Cl)C2` (centres unmarked) [IIIa-5-125], the inhibition in vivo at 50 mg/kg was found to be 33%.

In the case of `CCCCCCC(=O)Oc1cccc2c1C(=O)OC(C(CC(C)C)NC(=O)C(O)C1C=CC(=O)O1)C2` (centres unmarked) [IVa-3-6], the inhibition in vivo at 50 mg/kg was 33%.

As to `CCCCOc1cccc2c1C(=O)OC(C(CC(C)C)NC(=O)C(OCCCC)C1OC(=O)CC1N)C2` (centres unmarked) [IIIa-15-2], the inhibition in vivo at 50 mg/kg came out at 56%.

As for `CC(C)CC(NC(=O)C(OC(=O)C(Cl)(Cl)Cl)C1C=CC(=O)O1)C1Cc2cccc(O)c2C(=O)O1` (centres unmarked) [IVa-1-12], the inhibition in vivo at 50 mg/kg stood at 44%.

For the compound `CC(=O)Oc1cccc2c1C(=O)OC(C(CC(C)C)NC(=O)C(O)C1OC(=O)CC1N)C2` (centres unmarked) [IIIa-12-1], the inhibition in vivo at 50 mg/kg was found to be 78%.

Consider `CC(=O)N1CCC(COc2cccc3c2C(=O)OC(C(CC(C)C)NC(=O)C(O)C2OC(=O)CC2N)C3)CC1` (centres unmarked) [IIIa-13-16], for which the inhibition in vivo at 50 mg/kg worked out at 89%.

On to `CC(=O)NC1CC(=O)OC1C(O)C(=O)NC(CC(C)C)C1Cc2cccc(OCC(C)C)c2C(=O)O1` (centres unmarked) [IIIa-5-10], for which the inhibition in vivo at 50 mg/kg was determined as 44%.

`CCOc1cccc2c1C(=O)OC(C(CC(C)C)NC(=O)C(OCC)C1OC(=O)CC1NC(C)=O)C2` (centres unmarked) [IIIa-7-2]: the inhibition in vivo at 50 mg/kg is 33%.

On to `CC(=O)Oc1cccc2c1C(=O)OC(C(CC(C)C)NC(=O)C(O)C1OC(=O)CC1NC(=O)c1ccc(C)cc1)C2` (centres unmarked) [IIIa-4-7], for which the inhibition in vivo at 50 mg/kg came out at 33%.

In the case of `CCOc1cccc2c1C(=O)OC(C(CC(C)C)NC(=O)C(O)C1OC(=O)CC1NC(=O)Cc1ccc3ccccc3c1)C2` (centres unmarked) [IIIa-5-62], the inhibition in vivo at 50 mg/kg is 33%.

`CCCCCc1ccc(COc2cccc3c2C(=O)OC(C(CC(C)C)NC(=O)C(O)C2OC(=O)CC2NC(=O)CCC)C3)cc1` (centres unmarked) [IIIa-5-119]: the inhibition in vivo at 50 mg/kg was 33%.

As for `CC(C)CC(NC(=O)C(O)C1OC(=O)CC1N)C1Cc2cccc(OCCCl)c2C(=O)O1` (centres unmarked) [IIIa-13-6], the inhibition in vivo at 50 mg/kg is 94%.

In the case of `CC(C)CC(NC(=O)C(O)C1C=CC(=O)O1)C1Cc2cccc(OCc3ccco3)c2C(=O)O1` (centres unmarked) [IVa-4-13], the inhibition in vivo at 50 mg/kg was found to be 33%.

As for `COC(C(=O)NC(CC(C)C)C1Cc2cccc(OC(C)=O)c2C(=O)O1)C1OC(=O)CC1N` (centres unmarked) [IIIa-17-1], the inhibition in vivo at 50 mg/kg amounted to 56%.

`CC(C)CC(NC(=O)C(O)C1OC(=O)CC1N)C1Cc2cccc(OCCc3ccccc3)c2C(=O)O1` (centres unmarked) [IIIa-13-12]: the inhibition in vivo at 50 mg/kg was found to be 89%.

With `CCOc1cccc2c1C(=O)OC(C(CC(C)C)NC(=O)C(O)C1OC(=O)CC1NC(=O)c1ccc(C(=O)OC)cc1)C2` (centres unmarked) [IIIa-5-49], the inhibition in vivo at 50 mg/kg stood at 33%.

In the case of `CCCCOC(C(=O)NC(CC(C)C)C1Cc2cccc(O)c2C(=O)O1)C1OC(=O)CC1NCC` (centres unmarked) [IIIa-25-1], the inhibition in vivo at 50 mg/kg amounted to 66%.

As for `Cc1ccc(C(C)C)cc2c(C(=O)NC3CC(=O)OC3C(O)C(=O)NC(CC(C)C)C3Cc4cccc(O)c4C(=O)O3)c(C)cc1-2` (centres unmarked) [IIIa-1-70], the inhibition in vivo at 50 mg/kg worked out at 56%.

As to `COC(C)CC(=O)Oc1cccc2c1C(=O)OC(C(CC(C)C)NC(=N)C(O)C(O)C(N)CC(=O)O)C2` (centres unmarked) [Vb-4-3], the inhibition in vivo at 50 mg/kg worked out at 66%.

On to `CCCCCCCCCCCCCCCCCC(=O)Oc1cccc2c1C(=O)OC(C(CC(C)C)NC(=O)C(OC)C1OC(=O)CC1N)C2` (centres unmarked) [IIIa-17-2], for which the inhibition in vivo at 50 mg/kg stood at 44%.

Regarding `CCCC=Cc1ccc(CN=C(NC(CC(C)C)C2Cc3cccc(O)c3C(=O)O2)C(O)C(O)C(N)CC(=O)O)cc1` (centres unmarked) [Vb-1-40], the inhibition in vivo at 50 mg/kg was determined as 89%.

Regarding `CCC(=O)OC(C(=O)NC(CC(C)C)C1Cc2cccc(OCC3CCCCC3)c2C(=O)O1)C1OC(=O)CC1NC(C)=O` (centres unmarked) [IIIa-6-10], the inhibition in vivo at 50 mg/kg is 33%.

As to `CCOc1cccc2c1C(=O)OC(C(CC(C)C)NC(=O)C(O)C1OC(=O)CC1NCCSC)C2` (centres unmarked) [IIIa-22-39], the inhibition in vivo at 50 mg/kg stood at 94%.

Turning to `CC(C)CC(NC(=O)C(O)C1OC(=O)CC1NC(=O)C1CCC=CO1)C1Cc2cccc(O)c2C(=O)O1` (centres unmarked) [IIIa-1-59], the inhibition in vivo at 50 mg/kg is 66%.

Consider `Cc1ccc(N=C(NC(CC(C)C)C2Cc3cccc(O)c3C(=O)O2)C(O)C(O)C(N)CC(=O)O)cc1` (centres unmarked) [Vb-1-42], for which the inhibition in vivo at 50 mg/kg was determined as 83%.

On to `CCOc1cccc2c1C(=O)OC(C(CC(C)C)NC(=O)C(O)C1OC(=O)CC1NC(=O)CCCCC(C)CC)C2` (centres unmarked) [IIIa-5-55], for which the inhibition in vivo at 50 mg/kg worked out at 33%.

`CC(C)CC(NC(=O)C(O)C1C=CC(=O)O1)C1Cc2cccc(OCCc3ccccc3)c2C(=O)O1` (centres unmarked) [IVa-4-12]: the inhibition in vivo at 50 mg/kg was 44%.

With `CC(C)CC(NC(=O)C(O)C1C=CC(=O)O1)C1Cc2cccc(OCc3ccc4ccccc4c3)c2C(=O)O1` (centres unmarked) [IVa-4-17], the inhibition in vivo at 50 mg/kg was found to be 33%.

Regarding `CCC(=O)OC(C(=O)NC(CC(C)C)C1Cc2cccc(OC(=O)C(C)C)c2C(=O)O1)C1OC(=O)CC1NC(C)=O` (centres unmarked) [IIIa-3-2], the inhibition in vivo at 50 mg/kg amounted to 33%.

As to `CC(C)CC(NC(=O)C(O)C1C=CC(=O)O1)C1Cc2cccc(OCCC3CCCCO3)c2C(=O)O1` (centres unmarked) [IVa-4-15], the inhibition in vivo at 50 mg/kg was found to be 44%.

In the case of `CCOc1cccc2c1C(=O)OC(C(CC(C)C)NC(=N)C(O)C(O)C(N)CC(=O)O)C2` (centres unmarked) [Vb-5-1], the inhibition in vivo at 50 mg/kg came to 94%.
